From PubChem BioAssay AID1996
Converted amounts (≈) assume the structure as drawn.

conditions: buffer; pH 7.4; 200.0 µM

SMILES	solubility kinetic [µg/mL]
COc1ccc(C(=O)NCCCn2ccnc2)cc1[N+](=O)[O-]	> 45.6
Cc1cc(SCC(=O)N2CCCC2=O)nc2ccccc12	11.2 (≈ 37.3 µM)
COc1cccc(NC(=O)C(=O)NCCCn2ccnc2)c1	42.2 (≈ 140 µM)
CN1CCN(C(=S)c2cn(Cc3ccccc3)c3ccccc23)CC1	30.8 (≈ 88.1 µM)
COc1cccc(CC(=O)NCC2(N3CCCCC3)CCCCC2)c1	> 51.7
Cc1cc(C)c2nc(NC(=O)c3ccc([N+](=O)[O-])o3)sc2c1	< 0.2
Cc1cc(N)ccc1NC(=O)CN1CCCC1	23.1 (≈ 99 µM)
O=C(Oc1ccccc1)c1cccnc1Oc1ccccc1	20.7 (≈ 71.1 µM)
Cc1cc(C)cc(NC(=O)c2sc3nc(C)cc(C)c3c2N)c1	0.3 (≈ 0.922 µM)
CCN(CC(=O)N1CCCCCC1)S(=O)(=O)c1ccc(C)cc1	> 50.8
Nc1c(C(=O)N2CCCCC2)sc2nc3c(cc12)CCCC3	41.7 (≈ 132 µM)
Nc1ccc(N2CCOCC2)c(S(=O)(=O)Nc2ccccc2Cl)c1	31.7 (≈ 86.2 µM)
O=C1N=c2ccccc2=C1c1sc(Nc2cccc(O)c2)nc1O	0.7 (≈ 2.07 µM)
COc1ccc(C(=S)N2CCN(c3cccc(Cl)c3)CC2)cc1	1.2 (≈ 3.46 µM)
Cn1nccc1NC(=O)c1nccnc1C(=O)O	> 37.1
CCOC(=O)c1sc(=S)n(-c2ccccc2)c1C	3.4 (≈ 12.2 µM)
O=C(COC(=O)c1ccc(Br)o1)NC12CC3CC(CC(C3)C1)C2	34.3 (≈ 89.7 µM)
Cc1ccc(C)c(OCC(=O)O/N=C(\N)c2cccnc2)c1	11.2 (≈ 37.4 µM)
COc1cccc(C(=O)NCC(=O)N/N=C/c2cccnc2)c1	> 46.8
CN(c1cccc(NC(=O)c2ccc(C(C)(C)C)cc2)c1)S(C)(=O)=O	< 0.4
Cn1c(=O)c2c(nc3n2CC(CO)O3)n(C)c1=O (configuration not stated)	> 37.8
CCOC(=O)c1c(C)[nH]c(C)c1C(=O)COC(=O)[C@@H](NC(=O)c1ccco1)C(C)C	> 62.8
Cc1ccc(NC(=O)c2ccc(NC(=O)C3CCCCC3C(=O)O)cc2)cc1 (configuration not stated)	> 57.1
COc1ccc(Cl)cc1NC(=O)CN1CCc2ccccc2C1	< 0.4

SMILES	solubility kinetic [µg/mL]
COc1cccc(C(=O)N(C)Cc2c(C)nn(C3CCS(=O)(=O)C3)c2C)c1 (configuration not stated)	> 58.7
COc1cc(C)c(C)cc1S(=O)(=O)N1CCCc2ccccc21	4.9 (≈ 14.8 µM)
FC(F)(F)c1cccc(-c2nc(COc3ccc(Cl)cc3Cl)no2)c1	< 0.4
N#Cc1ccc(NCC(=O)Nc2ccc3c(c2)OCCO3)cc1	29.6 (≈ 95.7 µM)
Cc1cc(C)cc(OCC(=O)Nc2ccc3c(c2)OCCO3)c1	2 (≈ 6.38 µM)
CC(=O)Nc1cccc(Oc2ccc3c(c2)C(=O)NC3=O)c1	> 44.4
O=C(/C=C/c1cccc(F)c1)OCC(=O)N1CCc2ccccc21	3.2 (≈ 9.84 µM)
CCn1cc(C(=O)NCc2ccco2)c(=O)c2ccc(C)nc21	2.4 (≈ 7.71 µM)
CC(C)c1ccc(NC(=O)COc2ccc(C3SCCS3)cc2)cc1	4.1 (≈ 11 µM)
O=C(COc1ccccc1Cl)NCCNC(=O)c1ccccn1	> 50.1
O=C(CN1C(=O)CNC1=O)Nc1cc(Cl)cc(Cl)c1	> 45.3
CN1CCCN(C(=O)c2ccc(Br)cc2)CC1	41.4 (≈ 139 µM)
CC(C)CC1NC(=O)N(CC(=O)N(C)C2CCCCC2)C1=O (configuration not stated)	> 46.4
C(=N\Nc1nc2ccccc2[nH]1)/C1CCCCC1	> 36.3
CCOC(=O)C1C(CC)NC(=S)NC1(C)O (configuration not stated)	35 (≈ 142 µM)
COc1c2c(nc3occc13)C(CC=C(C)C)(OC)C(=O)C=C2 (configuration not stated)	> 47
Cn1c(SCC(=O)NC2CCCC2)nnc1C(F)(F)F	> 46.2
CCc1nccn1S(=O)(=O)c1cc(OC)ccc1OC	32.9 (≈ 111 µM)
CC1CCCC(NC(=O)CCn2c(=S)oc3ccccc32)C1C (configuration not stated)	2 (≈ 6.02 µM)
CC(NC(=O)c1cccc(S(=O)(=O)N(C)C)c1)C1CC2CCC1C2 (configuration not stated)	15.5 (≈ 44.2 µM)
CN(C)C(CNC(=O)c1ccc(C(F)(F)F)cc1)c1ccco1 (configuration not stated)	> 48.9
Cc1cccc(N2CCN(Cc3ccc([N+](=O)[O-])o3)CC2)c1C	6.1 (≈ 19.3 µM)
CC(C)(C)c1ccc(C(=O)NCC(=O)N2CCCC2)cc1	> 43.3
Cc1ccc(CNc2nc3ccccc3n2C)cc1	> 37.7

SMILES	solubility kinetic [µg/mL]
NC(=O)c1c(NC(=O)c2ccc(F)cc2)sc2c1CCC2	0.7 (≈ 2.3 µM)
CNCCc1ccccn1.Cl	> 31.4
O=C(COC(=O)c1cccc(Br)c1)NCC1CCCO1 (configuration not stated)	> 51.3
Cc1cccc(NC(=O)NC2CC3CCC(C2)N3Cc2ccco2)c1 (configuration not stated)	11.1 (≈ 32.7 µM)
Fc1ccccc1CN1CCN(c2ncccn2)CC1	30.1 (≈ 111 µM)
O=C(COC(=O)c1cc(=O)[nH]c2ccccc12)Nc1ccc(F)cc1F	13.7 (≈ 38.2 µM)
CCOC(=O)C1C(c2ccc(Cl)cc2)NC(=S)NC1(O)C(F)(F)F (configuration not stated)	37.8 (≈ 98.7 µM)
Oc1ccc(N2Cc3ccccc3C2)cc1	9.9 (≈ 46.9 µM)
O=C(CN1CCN(c2ccccn2)CC1)Nc1ccc(F)c(F)c1	> 49.9
COc1cc(NC(=O)C(=O)N2CCN(C)CC2)c(OC)cc1Cl	> 51.3
CN1C(=O)Cc2cc(S(=O)(=O)NCCc3ccccc3)ccc21	39.1 (≈ 118 µM)
CN(CC(=O)Nc1cccc(F)c1)C(=O)/C=C/c1ccc2ccccc2n1	9.9 (≈ 27.2 µM)
Cc1ccc(C(=O)N(C)Cc2nc3ccccc3c(=O)[nH]2)cc1NC(=O)c1ccco1	> 62.5
O=C(NNC(=O)C1CCC1)c1ccccc1	> 32.7
NC(=O)c1cn(C2CCCCC2)c2ccccc2c1=O	> 40.5
CCOc1ccc(/C=C(\C(=O)O)c2ccc(S(=O)(=O)N3CCCCC3)s2)cc1OC	> 67.7
OCCN(Cc1ccccc1)Cc1nc(CC2CC2)no1	> 43.1
Cc1ccc(S(=O)(=O)NC2CC(C)(C)NC(C)(C)C2)c(C)c1C	42.6 (≈ 126 µM)
COc1ccc(OC)c(NC(=O)COC(=O)CCc2ccc(S(=O)(=O)N3CCOCC3)cc2)c1	29 (≈ 58.9 µM)
C/C(=N/O)c1ccc2ccc3ccccc3c2c1	0.6 (≈ 2.55 µM)
CSc1ccccc1C(=O)NC(C)c1ccc(-n2ccnc2)cc1 (configuration not stated)	> 50.6
Cc1cccc(NC(=S)NCCc2ccccn2)c1	> 40.7
COc1ccc(C(=O)O)cc1S(N)(=O)=O	> 34.7
O=C(c1cccnc1)N1N=C2CCCCCC2C1(O)C(F)(F)F (configuration not stated)	> 49.1

SMILES	solubility kinetic [µg/mL]
CC(C)C[C@H]1C(=O)N2CCCC2[C@]2(O)O[C@](NC(=O)[C@@H]3C=C4c5cccc6[nH]cc(c56)CC4N(C)C3)(C(C)C)C(=O)N12 (some centres not stated)	24.1 (≈ 41.9 µM)
COc1ccc(NC(=O)Nc2ccncc2)c(OC)c1	> 41
CC(NC(=O)c1ccc(Br)o1)C1CCCO1 (configuration not stated)	> 43.2
Cn1cc(Br)c(C(=O)N2CCCCCC2)n1	> 42.9
CN(C)CCCN1c2ccccc2Sc2ccccc21.Cl	> 48.1
CSc1nc2nc3c(cc2c(=O)n1-c1ccccc1C)CCCC3	37.9 (≈ 112 µM)
COc1ccc(C(=O)OCC(=O)NC2CC2)cc1OC	> 41.9
NC(=O)CSc1nc(C23CC4CC(CC(C4)C2)C3)nc2ccccc12	1.2 (≈ 3.39 µM)
O=C1CC2c3ccccc3C1C1C(=O)N(Cc3ccccc3)C(=O)C21 (configuration not stated)	> 49.7
Cc1ccc(S(=O)(=O)Nc2ccccc2N2CCCCC2)cc1	3.1 (≈ 9.38 µM)
O=C(CNc1ccccc1F)Nc1cccc2ccccc12	10.4 (≈ 35.3 µM)
O=C(CCS(=O)(=O)c1ccccc1)NC1CCCCC1	> 44.3
COc1ccc(OC)c(NC(=O)c2cccnc2)c1	> 38.7
Cc1[nH]c2ccccc2c1C(=O)CN1CC(C)OC(C)C1 (configuration not stated)	39.4 (≈ 138 µM)
Cc1cc(=S)c2ccccc2[nH]1	20.5 (≈ 117 µM)
O=C(CSc1ccccn1)Nc1ccc2[nH]c(=O)[nH]c2c1	> 45.1
CCN(Cc1nc(-c2ccc(C)cc2)no1)C(=O)c1ccco1	38.9 (≈ 125 µM)
O=C(NCc1c(Cl)cccc1Oc1ccccc1)c1ccccc1	0.9 (≈ 2.66 µM)
CCOc1ccc(-c2n[nH]c(=S)o2)cc1	> 33.3
CC1=C(C(=O)OC(C)C)C(c2cccs2)NC(=O)N1 (configuration not stated)	37.2 (≈ 133 µM)
COc1cc(OC)c(C(=O)O/N=C(\N)c2ccccc2)cc1OC	45.7 (≈ 138 µM)
COC(=O)c1cccc(NC(=O)C(C)(C)C)c1	> 35.3
O=C(COC(=O)C1=COCCO1)Nc1ccc(Br)cc1Br	6.6 (≈ 15.7 µM)
CCOc1ccc(N2CC(C(=O)N3CCCc4ccccc43)CC2=O)cc1 (configuration not stated)	47.2 (≈ 130 µM)

SMILES	solubility kinetic [µg/mL]
O=C(CSc1ccccc1)NC1CCCCCC1	> 39.5
O=C(CSc1nnc(C2CC2)n1-c1ccccc1)NC1CCS(=O)(=O)C1 (configuration not stated)	> 58.9
Cc1cc(C)nc(/N=C(\NC(=O)C(C)(C)C)Nc2ccccc2)n1	1.8 (≈ 5.53 µM)
CCOc1cc(/C=C2\NC(=O)NC2=O)ccc1OC(C)C(=O)O (configuration not stated)	> 48
CC1CCCC(NC(=O)CN2C(=O)NC(C)(c3cc(F)ccc3F)C2=O)C1C (configuration not stated)	> 59
O=c1[nH]c(COc2ccccc2)nc2ccccc12	4.1 (≈ 16.3 µM)
O=C(CN1CCC(NC(=O)C2CC2)CC1)Nc1ccccc1[N+](=O)[O-]	46.6 (≈ 135 µM)
CC1CCCN(S(=O)(=O)c2ccc([N+](=O)[O-])cc2)C1 (configuration not stated)	2.9 (≈ 10.2 µM)
Cc1ccc(CNC(=O)CN2CCN(c3ccc(F)cc3)CC2)cc1	> 51.2
O=C1NN=C(c2ccccc2)CC1c1c[nH]c2ccccc12 (configuration not stated)	> 43.4
Cn1c(O)c(C=Nc2cccc(C(F)(F)F)c2)c(=O)n(C)c1=O	10.6 (≈ 32.4 µM)
C=C1SC(Nc2c(C)cccc2C)=NC12CCCCC2	< 0.3
CCCCN1C(C(=O)Nc2cc(C)on2)=C(O)c2ccccc2S1(=O)=O	> 56.6
CCOC(=O)c1cc(C#N)c(N2CCCNCC2)nc1C(F)(F)F	> 51.3
Cc1ccc(NC(=S)c2ccncc2)cc1	33.5 (≈ 147 µM)
COc1ccc(S(=O)(=O)N2CCCCC2)cc1NC(=O)COC(=O)c1ccco1	5.8 (≈ 13.7 µM)
O=[N+]([O-])c1ccc(NS(=O)(=O)N2CCOCC2)cc1	> 43.1
Cc1cc2oc(=O)cc(CN3CCOCC3)c2c(C)c1Cl	0.9 (≈ 2.92 µM)
Nc1nc(Nc2ccccc2)nc(NC2CCCCC2)c1[N+](=O)[O-]	< 0.1
O=[N+]([O-])c1ccc(Cl)c(S(=O)(=O)n2ccnc2)c1	> 43.2
O=[N+]([O-])c1ccccc1S(=O)(=O)N1CCN(c2ccccn2)CC1	4.1 (≈ 11.8 µM)
